Values of other authors, collected in patent publication US20240136011A1, “SYSTEM, METHOD, AND COMPUTER PROGRAM FOR PHYSICS-BASED BINDING AFFINITY ESTIMATION” (BOARD OF TRUSTEES OF THE UNIVERSITY OF ARKANSAS, priority 2022, published 2024).

Target: human fibroblast growth factor 1 (hFGF1) (Homo sapiens, UniProt P05230)
Conditions: MM-GBSA; recent computational studies

Sequence of human fibroblast growth factor 1 (hFGF1) (P05230 whole entry): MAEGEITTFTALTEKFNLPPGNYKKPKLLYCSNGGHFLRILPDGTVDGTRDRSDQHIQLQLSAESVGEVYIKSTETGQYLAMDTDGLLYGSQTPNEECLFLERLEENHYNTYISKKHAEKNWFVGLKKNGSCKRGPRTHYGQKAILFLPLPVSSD

heparin hexasaccharide
ΔG°: -95 ± 11 kcal/mol
